Reference: PubChem BioAssay (NCI)
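Values below derive from 48-hour exposures of cells grown in 96-well plates, with endpoints linearly interpolated between the two concentrations bracketing the appropriate inhibition level. At the GI50, growth is halved. At the TGI there is no net growth.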

Experiments:
Test in all cases: DTP human tumour cell line panel, 48 h
[1] = tested on: T-47D breast
[2] = tested on: MOLT-4 leukemia
[3] = tested on: NCI-H522 lung
[4] = tested on: SF-295 CNS
[5] = tested on: HOP-62 NSCLC
[6] = tested on: LOX IMVI melanoma
[7] = tested on: K-562 leukemia
[8] = tested on: HCT-15 colon
[9] = tested on: OVCAR-5 ovarian
[10] = tested on: NCI-H23 lung
[11] = tested on: EKVX NSCLC
[12] = tested on: MDA-MB-435
[13] = tested on: DU-145 prostate
[14] = tested on: KM12 colon
[15] = tested on: UACC-257 melanoma
[16] = tested on: MDA-MB-231 breast
[17] = tested on: SK-MEL-2 melanoma
[18] = tested on: NCI-H460 lung
[19] = tested on: SN12C renal
[20] = tested on: PC-3 prostate
[21] = tested on: HL-60(TB) leukemia
[22] = tested on: RXF 393 renal
[23] = tested on: M14 melanoma
[24] = tested on: SF-539 CNS
[25] = tested on: HT29 colon
[26] = tested on: NCI-H226 lung
[27] = tested on: NCI/ADR-RES ovarian
[28] = tested on: SK-OV-3 ovarian
[29] = tested on: HS 578T breast
[30] = tested on: A549 NSCLC
[31] = tested on: COLO 205 colon
[32] = tested on: ACHN renal
[33] = tested on: RPMI-8226 leukemia
[34] = tested on: HCC-2998 colon
[35] = tested on: SF-268 CNS
[36] = tested on: U251 CNS
[37] = tested on: OVCAR-3 ovarian
[38] = tested on: BT-549 breast
[39] = tested on: OVCAR-4 ovarian
[40] = tested on: SK-MEL-28 melanoma
[41] = tested on: CAKI-1 renal
[42] = tested on: MALME-3M melanoma
[43] = tested on: HOP-92 NSCLC
[44] = tested on: 786-0 renal
[45] = tested on: SR leukemia
[46] = tested on: IGROV1 ovarian
[47] = tested on: MCF7 breast
[48] = tested on: UO-31 renal
[49] = tested on: SW-620 colon
[50] = tested on: HCT-116 colon
[51] = tested on: A498 renal
[52] = tested on: SNB-19 CNS
[53] = tested on: UACC-62 melanoma
[54] = tested on: SK-MEL-5 melanoma
[55] = tested on: TK-10 renal
[56] = tested on: SNB-75 CNS
[57] = tested on: CCRF-CEM leukemia
[58] = tested on: OVCAR-8 ovarian

O[N+]1=CC=CCC1=S.On1ccccc1=S.[Zn]
GI50 [1]: 1.43 µM | TGI [1]: 3.13 µM | GI50 [2]: 0.614 µM | TGI [2]: 6.76 µM | GI50 [3]: 0.373 µM | TGI [3]: 0.985 µM | GI50 [4]: 0.924 µM | TGI [4]: 2.72 µM | GI50 [5]: 1.21 µM | TGI [5]: 2.72 µM | GI50 [6]: 0.429 µM | TGI [6]: 0.912 µM | GI50 [7]: 0.661 µM | TGI [7]: 6.98 µM | GI50 [8]: 1.03 µM | TGI [8]: 3.02 µM | GI50 [9]: 1.45 µM | TGI [9]: 3.04 µM | GI50 [10]: 0.919 µM | TGI [10]: 2.81 µM | GI50 [11]: 1.36 µM | TGI [11]: 3 µM | GI50 [12]: 0.753 µM | TGI [12]: 2.27 µM | GI50 [13]: 0.732 µM | TGI [13]: 1.86 µM | GI50 [14]: 1.28 µM | TGI [14]: 2.6 µM | GI50 [15]: 0.529 µM | TGI [15]: 1.29 µM | GI50 [16]: 0.759 µM | TGI [16]: 2.22 µM | GI50 [17]: 1.6 µM | TGI [17]: 3.92 µM | GI50 [18]: 0.935 µM | TGI [18]: 2.87 µM | GI50 [19]: 1 µM | TGI [19]: 2.53 µM | GI50 [20]: 0.834 µM | TGI [20]: 3.13 µM | GI50 [21]: 2.58 µM | TGI [21]: 6.5 µM | GI50 [22]: 0.587 µM | TGI [22]: 1.36 µM | GI50 [23]: 0.46 µM | TGI [23]: 1.31 µM | GI50 [24]: 0.977 µM | TGI [24]: 2.56 µM | GI50 [25]: 0.3 µM | TGI [25]: 0.942 µM | GI50 [26]: 1.02 µM | TGI [26]: 3.04 µM | GI50 [27]: 0.699 µM | TGI [27]: 2.39 µM | GI50 [28]: 1.51 µM | TGI [28]: 2.87 µM | GI50 [29]: 2.15 µM | TGI [29]: > 30.7 µM | GI50 [30]: 0.811 µM | TGI [30]: 2.33 µM | GI50 [31]: 0.375 µM | TGI [31]: 0.951 µM | GI50 [32]: 0.967 µM | TGI [32]: 2.31 µM | GI50 [33]: 1.39 µM | TGI [33]: 4.05 µM | GI50 [34]: 0.896 µM | TGI [34]: 2.37 µM | GI50 [35]: 0.88 µM | TGI [35]: 2.51 µM | GI50 [36]: 0.602 µM | TGI [36]: 1.52 µM | GI50 [37]: 0.579 µM | TGI [37]: 1.37 µM | GI50 [38]: 1.52 µM | TGI [38]: 3.15 µM | GI50 [39]: 0.53 µM | TGI [39]: 1.63 µM | GI50 [40]: 0.53 µM | TGI [40]: 1.21 µM | GI50 [41]: 1.53 µM | TGI [41]: 3.13 µM | GI50 [42]: 0.819 µM | TGI [42]: 2.71 µM | GI50 [43]: 1.47 µM | TGI [43]: 3.24 µM | GI50 [44]: 0.931 µM | TGI [44]: 2.29 µM | GI50 [45]: 0.351 µM | TGI [45]: > 23 µM | GI50 [46]: 0.862 µM | TGI [46]: 2.72 µM | GI50 [47]: 0.532 µM | TGI [47]: 2.1 µM | GI50 [48]: 0.664 µM | TGI [48]: 1.97 µM | GI50 [49]: 0.899 µM | TGI [49]: 2.64 µM | GI50 [50]: 0.274 µM | TGI [50]: 0.69 µM | GI50 [51]: 1.51 µM | TGI [51]: 3.06 µM | GI50 [52]: 1.24 µM | TGI [52]: 2.8 µM | GI50 [53]: 0.755 µM | TGI [53]: 2.23 µM | GI50 [54]: 1.1 µM | TGI [54]: 2.47 µM | GI50 [55]: 1.09 µM | TGI [55]: 2.47 µM | GI50 [56]: 1.95 µM | TGI [56]: 6.85 µM | GI50 [57]: 0.437 µM | TGI [57]: 2.75 µM | GI50 [58]: 0.399 µM | TGI [58]: 1.83 µM
